Test results: BindingDB's records for doi:10.1021/jm060797q (Teikyo University, 2006)

assay: Antagonist activity against 1-alpha,25-dihydroxy vitamin D3-induced HL60 cell differentiation by NBT reduction method

IC50 | Compound
10 nM | C=C1/C(=C\C=C2/CCC[C@]3(C)[C@@H]([C@H](C)C[C@H]4OC(=O)C(=C)[C@@H]4CC(C)C)CC[C@@H]23)C[C@@H](O)C[C@@H]1O
6.7 nM | C=C1/C(=C\C=C2/CCC[C@]3(C)[C@@H]([C@H](C)C[C@H]4OC(=O)C(=C)[C@@H]4CC)CC[C@@H]23)C[C@@H](O)[C@H](C)[C@@H]1O
9.3 nM | C=C1/C(=C\C=C2/CCC[C@]3(C)[C@@H]([C@H](C)C[C@H]4OC(=O)C(=C)[C@H]4CC(C)C)CC[C@@H]23)C[C@@H](O)[C@H](OCCCO)[C@@H]1O
8.4 nM | C=C1/C(=C\C=C2/CCC[C@]3(C)[C@@H]([C@H](C)C[C@@H]4OC(=O)C(=C)[C@H]4CC)CC[C@@H]23)C[C@@H](O)[C@H](CCCO)[C@@H]1O
6.3 nM | C=C1/C(=C\C=C2/CCC[C@]3(C)[C@@H]([C@H](C)C[C@H]4OC(=O)C(=C)[C@@H]4CCC)CC[C@@H]23)C[C@@H](O)[C@H](CCCO)[C@@H]1O
8.8 nM | C=C1/C(=C\C=C2/CCC[C@]3(C)[C@@H]([C@H](C)C[C@H]4OC(=O)C(=C)[C@H]4CCCC)CC[C@@H]23)C[C@@H](O)[C@H](OCCCO)[C@@H]1O
9.5 nM | C=C1/C(=C\C=C2/CCC[C@]3(C)[C@@H]([C@H](C)C[C@@H]4OC(=O)C(=C)[C@@H]4CC(C)C)CC[C@@H]23)C[C@@H](O)C[C@@H]1O
11 nM | C=C1/C(=C\C=C2/CCC[C@]3(C)[C@@H]([C@H](C)C[C@H]4OC(=O)C(=C)[C@H]4CC(C)C)CC[C@@H]23)C[C@@H](O)[C@H](C)[C@@H]1O
6.8 nM | C=C1/C(=C\C=C2/CCC[C@]3(C)[C@@H]([C@H](C)C[C@@H]4OC(=O)C(=C)[C@@H]4C)CC[C@@H]23)C[C@@H](O)[C@H](C)[C@@H]1O
6.2 nM | C=C1/C(=C\C=C2/CCC[C@]3(C)[C@@H]([C@H](C)C[C@H]4OC(=O)C(=C)[C@@H]4C)CC[C@@H]23)C[C@@H](O)[C@H](CCCO)[C@@H]1O
8.8 nM | C=C1/C(=C\C=C2/CCC[C@]3(C)[C@@H]([C@H](C)C[C@@H]4OC(=O)C(=C)[C@@H]4CCCC)CC[C@@H]23)C[C@@H](O)[C@H](CCCO)[C@@H]1O
6.3 nM | C=C1/C(=C\C=C2/CCC[C@]3(C)[C@@H]([C@H](C)C[C@@H]4OC(=O)C(=C)[C@@H]4CCC)CC[C@@H]23)C[C@@H](O)[C@H](OCCCO)[C@@H]1O
11 nM | C=C1/C(=C\C=C2/CCC[C@]3(C)[C@@H]([C@H](C)C[C@H]4OC(=O)C(=C)[C@@H]4CC(C)C)CC[C@@H]23)C[C@@H](O)[C@H](C)[C@@H]1O
6.3 nM | C=C1/C(=C\C=C2/CCC[C@]3(C)[C@@H]([C@H](C)C[C@@H]4OC(=O)C(=C)[C@@H]4CCC)CC[C@@H]23)C[C@@H](O)[C@H](C)[C@@H]1O
6.3 nM | C=C1/C(=C\C=C2/CCC[C@]3(C)[C@@H]([C@H](C)C[C@H]4OC(=O)C(=C)[C@H]4CCC)CC[C@@H]23)C[C@@H](O)[C@H](CCCO)[C@@H]1O
6 nM | C=C1C[C@@H](C[C@@H](C)[C@H]2CC[C@H]3/C(=C/C=C4/C[C@@H](O)C[C@H](O)C4=C)CCC[C@]23C)OC1=O

IC50 | Compound
8.4 nM | C=C1/C(=C\C=C2/CCC[C@]3(C)[C@@H]([C@H](C)C[C@H]4OC(=O)C(=C)[C@@H]4CC)CC[C@@H]23)C[C@@H](O)[C@H](OCCCO)[C@@H]1O
6.3 nM | C=C1C[C@H](C[C@@H](C)[C@H]2CC[C@H]3/C(=C/C=C4/C[C@@H](O)C[C@H](O)C4=C)CCC[C@]23C)OC1=O
11 nM | C=C1/C(=C\C=C2/CCC[C@]3(C)[C@@H]([C@H](C)C[C@@H]4OC(=O)C(=C)[C@H]4CC(C)C)CC[C@@H]23)C[C@@H](O)[C@H](C)[C@@H]1O
6.1 nM | C=C1C(=O)O[C@H](C[C@@H](C)[C@H]2CC[C@H]3/C(=C/C=C4/C[C@@H](O)[C@H](OCCCO)[C@H](O)C4=C)CCC[C@]23C)[C@@H]1C
6.3 nM | C=C1/C(=C\C=C2/CCC[C@]3(C)[C@@H]([C@H](C)C[C@H]4OC(=O)C(=C)[C@@H]4CCC)CC[C@@H]23)C[C@@H](O)[C@H](OCCCO)[C@@H]1O
8.6 nM | C=C1/C(=C\C=C2/CCC[C@]3(C)[C@@H]([C@H](C)C[C@@H]4OC(=O)C(=C)[C@@H]4CC)CC[C@@H]23)C[C@@H](O)C[C@@H]1O
9.3 nM | C=C1/C(=C\C=C2/CCC[C@]3(C)[C@@H]([C@H](C)C[C@@H]4OC(=O)C(=C)[C@@H]4CC(C)C)CC[C@@H]23)C[C@@H](O)[C@H](OCCCO)[C@@H]1O
6.7 nM | C=C1/C(=C\C=C2/CCC[C@]3(C)[C@@H]([C@H](C)C[C@H]4OC(=O)C(=C)[C@H]4CCCC)CC[C@@H]23)C[C@@H](O)[C@H](C)[C@@H]1O
8.8 nM | C=C1/C(=C\C=C2/CCC[C@]3(C)[C@@H]([C@H](C)C[C@H]4OC(=O)C(=C)[C@@H]4CCCC)CC[C@@H]23)C[C@@H](O)[C@H](OCCCO)[C@@H]1O
6.7 nM | C=C1/C(=C\C=C2/CCC[C@]3(C)[C@@H]([C@H](C)C[C@H]4OC(=O)C(=C)[C@@H]4CCCC)CC[C@@H]23)C[C@@H](O)[C@H](C)[C@@H]1O
8.4 nM | C=C1/C(=C\C=C2/CCC[C@]3(C)[C@@H]([C@H](C)C[C@@H]4OC(=O)C(=C)[C@@H]4CC)CC[C@@H]23)C[C@@H](O)[C@H](OCCCO)[C@@H]1O
9.3 nM | C=C1C(=O)O[C@@H](C[C@@H](C)[C@H]2CC[C@H]3/C(=C/C=C4/C[C@@H](O)C[C@H](O)C4=C)CCC[C@]23C)[C@@H]1CC(C)C
9.3 nM | C=C1/C(=C\C=C2/CCC[C@]3(C)[C@@H]([C@H](C)C[C@@H]4OC(=O)C(=C)[C@H]4CC(C)C)CC[C@@H]23)C[C@@H](O)[C@H](OCCCO)[C@@H]1O
6.7 nM | C=C1/C(=C\C=C2/CCC[C@]3(C)[C@@H]([C@H](C)C[C@@H]4OC(=O)C(=C)[C@H]4CCCC)CC[C@@H]23)C[C@@H](O)[C@H](C)[C@@H]1O
8.2 nM | C=C1C(=O)O[C@@H](C[C@@H](C)[C@H]2CC[C@H]3/C(=C/C=C4/C[C@@H](O)C[C@H](O)C4=C)CCC[C@]23C)[C@@H]1CCCC
8.8 nM | C=C1/C(=C\C=C2/CCC[C@]3(C)[C@@H]([C@H](C)C[C@H]4OC(=O)C(=C)[C@@H]4CCCC)CC[C@@H]23)C[C@@H](O)[C@H](CCCO)[C@@H]1O

The next lines start with the molecule.

Compound | IC50
C=C1C(=O)O[C@H](C[C@@H](C)[C@H]2CC[C@H]3/C(=C/C=C4/C[C@@H](O)C[C@H](O)C4=C)CCC[C@]23C)[C@@H]1CCC | 6 nM
C=C1C(=O)O[C@H](C[C@@H](C)[C@H]2CC[C@H]3/C(=C/C=C4/C[C@@H](O)C[C@H](O)C4=C)CCC[C@]23C)[C@@H]1CCCC | 8.2 nM
C=C1/C(=C\C=C2/CCC[C@]3(C)[C@@H]([C@H](C)C[C@H]4OC(=O)C(=C)[C@@H]4CCC)CC[C@@H]23)C[C@@H](O)C[C@@H]1O | 6 nM
C=C1/C(=C\C=C2/CCC[C@]3(C)[C@@H]([C@H](C)C[C@@H]4OC(=O)C(=C)[C@@H]4CCCC)CC[C@@H]23)C[C@@H](O)[C@H](OCCCO)[C@@H]1O | 8.8 nM
C=C1/C(=C\C=C2/CCC[C@]3(C)[C@@H]([C@H](C)C[C@H]4OC(=O)C(=C)[C@@H]4C)CC[C@@H]23)C[C@@H](O)C[C@@H]1O | 11 nM
C=C1/C(=C\C=C2/CCC[C@]3(C)[C@@H]([C@H](C)C[C@H]4OC(=O)C(=C)[C@H]4CC)CC[C@@H]23)C[C@@H](O)[C@H](OCCCO)[C@@H]1O | 8.4 nM
C=C1/C(=C\C=C2/CCC[C@]3(C)[C@@H]([C@H](C)C[C@@H]4OC(=O)C(=C)[C@@H]4C)CC[C@@H]23)C[C@@H](O)[C@H](OCCCO)[C@@H]1O | 6.1 nM
C=C1/C(=C\C=C2/CCC[C@]3(C)[C@@H]([C@H](C)C[C@H]4OC(=O)C(=C)[C@H]4CCCC)CC[C@@H]23)C[C@@H](O)[C@H](CCCO)[C@@H]1O | 8.8 nM
C=C1/C(=C\C=C2/CCC[C@]3(C)[C@@H]([C@H](C)C[C@@H]4OC(=O)C(=C)[C@H]4CCC)CC[C@@H]23)C[C@@H](O)[C@H](C)[C@@H]1O | 6.3 nM
C=C1/C(=C\C=C2/CCC[C@]3(C)[C@@H]([C@H](C)C[C@@H]4OC(=O)C(=C)[C@@H]4CCC)CC[C@@H]23)C[C@@H](O)[C@H](CCCO)[C@@H]1O | 6.3 nM
C=C1C(=O)O[C@H](C[C@@H](C)[C@H]2CC[C@H]3/C(=C/C=C4/C[C@@H](O)C[C@H](O)C4=C)CCC[C@]23C)[C@@H]1CC | 8.6 nM
C=C1C(=O)O[C@H](C[C@@H](C)[C@H]2CC[C@H]3/C(=C/C=C4/C[C@@H](O)C[C@H](O)C4=C)CCC[C@]23C)[C@@H]1CC(C)C | 10 nM
C=C1C(=O)O[C@H](C[C@@H](C)[C@H]2CC[C@H]3/C(=C/C=C4/C[C@@H](O)[C@H](CCCO)[C@H](O)C4=C)CCC[C@]23C)[C@@H]1C | 6.2 nM
C=C1C(=O)O[C@@H](C[C@@H](C)[C@H]2CC[C@H]3/C(=C/C=C4/C[C@@H](O)C[C@H](O)C4=C)CCC[C@]23C)[C@@H]1CCC | 6 nM
C=C1/C(=C\C=C2/CCC[C@]3(C)[C@@H]([C@H](C)C[C@H]4OC(=O)C(=C)[C@H]4CC)CC[C@@H]23)C[C@@H](O)[C@H](CCCO)[C@@H]1O | 8.4 nM
C=C1/C(=C\C=C2/CCC[C@]3(C)[C@@H]([C@H](C)C[C@H]4OC(=O)C(=C)[C@@H]4CC)CC[C@@H]23)C[C@@H](O)C[C@@H]1O | 8.6 nM
C=C1/C(=C\C=C2/CCC[C@]3(C)[C@@H]([C@H](C)C[C@@H]4OC(=O)C(=C)[C@H]4CCC)CC[C@@H]23)C[C@@H](O)[C@H](OCCCO)[C@@H]1O | 6.3 nM
C=C1/C(=C\C=C2/CCC[C@]3(C)[C@@H]([C@H](C)C[C@@H]4OC(=O)C(=C)[C@H]4CC)CC[C@@H]23)C[C@@H](O)[C@H](C)[C@@H]1O | 6.7 nM
C=C1C(=O)O[C@@H](C[C@@H](C)[C@H]2CC[C@H]3/C(=C/C=C4/C[C@@H](O)C[C@H](O)C4=C)CCC[C@]23C)[C@@H]1C | 7.7 nM
C=C1C(=O)O[C@@H](C[C@@H](C)[C@H]2CC[C@H]3/C(=C/C=C4/C[C@@H](O)[C@H](C)[C@H](O)C4=C)CCC[C@]23C)[C@@H]1C | 6.8 nM
C=C1C(=O)O[C@H](C[C@@H](C)[C@H]2CC[C@H]3/C(=C/C=C4/C[C@@H](O)[C@H](C)[C@H](O)C4=C)CCC[C@]23C)[C@@H]1C | 8.1 nM
C=C1/C(=C\C=C2/CCC[C@]3(C)[C@@H]([C@H](C)C[C@@H]4OC(=O)C(=C)[C@@H]4CCCC)CC[C@@H]23)C[C@@H](O)[C@H](C)[C@@H]1O | 6.7 nM
C=C1C(=O)O[C@H](C[C@@H](C)[C@H]2CC[C@H]3/C(=C/C=C4/C[C@@H](O)C[C@H](O)C4=C)CCC[C@]23C)[C@@H]1C | 9.2 nM
C=C1/C(=C\C=C2/CCC[C@]3(C)[C@@H]([C@H](C)C[C@@H]4OC(=O)C(=C)[C@H]4CCCC)CC[C@@H]23)C[C@@H](O)[C@H](CCCO)[C@@H]1O | 8.8 nM
